Measurements reported in PMC2248166, “Quantitative peptide binding motifs for 19 human and mouse MHC class I molecules derived using positional scanning combinatorial peptide libraries” (Immunome Research, 2008).

Assays:
HLA B*5101 = HLA B*5101 (Homo sapiens, UniProt P01889, A329T/A93T/A95T/C349S/D138N/D201E/D98Y/E187L/E204Q/E69T/G107R/I218V/K202T/L105A/L119W/N104I/Q94N/R106L/R155S/R180L/S101N/S121T/S35A/S48A/V306I/V36M/Y195H/Y91F); format: binding
HLA B*0801 = HLA B*0801 (Homo sapiens, UniProt P01889, A93T/A95T/D138N/E176V/E187T/K202T/Q94N/R180D/S35A/V36M/Y33D/Y91F); assay: biochemical; format: binding
HLA B*1501 = HLA B*1501 (Homo sapiens, UniProt P01889, A329T/A93T/A95T/C349S/D201E/D98Y/E187L/E204Q/E69M/E70A/K202T/N87E/Q94N/R155S/R180W/S121R/S35A/S48A/V306I/V36M/Y140S/Y91S); assay: biochemical; format: binding
HLA B*5801 = HLA B*5801 (Homo sapiens, UniProt P01889, A329T/C349S/D201E/D98Y/E176V/E187L/E204Q/E69T/G107R/I218V/I90N/K202T/L105A/L119I/N104I/N87E/Q89R/Q94S/R106L/R155S/R180L/R86G/S101N/S121R/S35A/S48A/T118I/V127L/V306I/V36M/Y140S/Y91M); format: binding
HLA B*5301 = HLA B*5301 (Homo sapiens, UniProt P01889, A329T/A93T/A95T/C349S/D201E/D98Y/E176V/E187L/E204Q/E69T/G107R/I218V/K202T/L105A/L119I/N104I/Q94N/R106L/R155S/R180L/S101N/S121R/S35A/S48A/T118I/V127L/V306I/V36M/Y140S/Y91F); format: binding
HLA B*1503 = HLA B*1503 (Homo sapiens, UniProt P01889, A329T/A93T/A95T/C349S/D201E/D98Y/E187L/E204Q/K202T/N87E/Q94N/R155S/R180L/S121R/S35A/V306I/V36M/Y140S/Y91S); assay: biochemical; format: binding
HLA A*6802 = HLA A*6802 (Homo sapiens, UniProt P04439, A269V/D140Y/D185E/E176V/E277Q/E87N/F33Y/G231S/I121R/I166T/I218V/L180W/L300P/L318F/N151K/P208A/P217A/Q86R/R138H/R169H/S129P/T345S/V36M); format: binding
HLA B*0702 = HLA B*0702 (Homo sapiens, UniProt P01889); format: binding; details: positional scanning combinatorial 9-mer library; normalized to 1.0 for the best residue at each position
HLA B*5401 = HLA B*5401 (Homo sapiens, UniProt P01889, A329T/C349S/D138N/D201E/E176V/E187T/E204Q/E69G/I76V/K202T/L119W/R155S/R180L/S121T/S35A/S48A/V127L/V306I/V36M/Y140L); format: binding
H-2 K^k = H-2 K^k (Mus musculus, UniProt P04223); format: binding
HLA B*3501 = HLA B*3501 (Homo sapiens, UniProt P01889, A329T/A93T/A95T/C349S/D201E/D98Y/E176V/E187L/E204Q/E69T/I218V/K202T/L119I/Q94N/R155S/R180L/S121R/S35A/S48A/T118I/V127L/V306I/V36M/Y140S/Y91F); format: binding
H-2 D^b = H-2 D^b (Mus musculus, UniProt P01899); format: binding
HLA A*0201 = HLA A*0201 (Homo sapiens, UniProt P04439, D140Y/D185E/D98H/E176V/E277Q/G131W/G231S/I119V/I121R/I166T/I218V/L300P/L318F/N151K/N90K/P208A/P217A/Q86G/Q94H/R138H/R169H/T345S); details: positional scanning combinatorial 9-mer library; normalized to 1.0 for the best residue at each position
HLA B*2705 = HLA B*2705 (Homo sapiens, UniProt P01889, D138H/D201E/E176V/E204Q/G107R/H137Y/K202T/N104T/N87E/Q56L/Q94K/R106L/R155S/R180L/S101D/S121N/S48T/Y140D/Y33H/Y91C); format: binding; details: positional scanning combinatorial 9-mer library; normalized to 1.0 for the best residue at each position
HLA B*5802 = HLA B*5802 (Homo sapiens, UniProt P01889, A329T/C349S/D201E/D98Y/E176V/E187L/E204Q/E69T/G107R/I218V/I90N/K202T/L105A/N104I/N87E/Q89R/Q94S/R106L/R155S/R180L/R86G/S101N/S121W/S35A/S48A/V127L/V306I/V36M/Y140S/Y91M); format: binding
H-2 D^d = H-2 D^d (Mus musculus, UniProt P01900); format: binding
HLA A*3001 = HLA A*3001 (Homo sapiens, UniProt P04439, D140H/D185E/E176W/F33S/G80R/H175R/K168Q/R138E/R41S); assay: biochemical; format: binding
HLA A*3201 = HLA A*3201 (Homo sapiens, UniProt P04439, A270S/D101S/D185E/E176V/E277Q/F133L/G103R/G107R/G231S/H175R/I121M/I218V/I322F/K168Q/L105A/L300P/L318F/M331R/P208A/P217A/Q94H/R106L/R138Q/S129P/T104I/T323A/T345S/V100E/V321M/V358M); assay: biochemical; format: binding

Sequence of H-2 K^k (P01887 21-119): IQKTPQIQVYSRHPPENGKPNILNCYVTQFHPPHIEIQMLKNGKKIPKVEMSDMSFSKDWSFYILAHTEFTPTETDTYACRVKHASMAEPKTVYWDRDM
Sequence of H-2 K^k (P04223 22-369): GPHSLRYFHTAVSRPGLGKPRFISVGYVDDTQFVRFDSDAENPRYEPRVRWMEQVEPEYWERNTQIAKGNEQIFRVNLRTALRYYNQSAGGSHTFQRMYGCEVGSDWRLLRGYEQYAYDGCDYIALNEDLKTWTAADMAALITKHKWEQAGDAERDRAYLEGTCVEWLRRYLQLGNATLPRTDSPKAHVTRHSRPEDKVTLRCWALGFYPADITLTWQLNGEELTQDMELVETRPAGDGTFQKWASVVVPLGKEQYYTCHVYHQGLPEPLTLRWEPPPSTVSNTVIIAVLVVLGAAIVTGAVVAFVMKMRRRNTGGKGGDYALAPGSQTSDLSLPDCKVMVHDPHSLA
Sequence of H-2 D^b (P01887 21-119): as the sequence (P01887 21-119) above
Sequence of H-2 D^b (P01899 25-362): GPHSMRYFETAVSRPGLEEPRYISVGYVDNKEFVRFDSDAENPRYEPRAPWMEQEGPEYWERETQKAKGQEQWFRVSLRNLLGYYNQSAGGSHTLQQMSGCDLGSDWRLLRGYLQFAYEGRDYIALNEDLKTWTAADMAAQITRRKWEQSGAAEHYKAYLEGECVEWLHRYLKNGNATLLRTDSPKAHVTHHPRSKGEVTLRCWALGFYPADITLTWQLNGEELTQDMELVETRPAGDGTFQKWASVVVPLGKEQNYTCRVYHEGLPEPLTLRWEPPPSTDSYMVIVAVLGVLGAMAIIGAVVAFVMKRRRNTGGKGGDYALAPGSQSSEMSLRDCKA
Sequence of H-2 D^d (P01900 whole entry, looked up): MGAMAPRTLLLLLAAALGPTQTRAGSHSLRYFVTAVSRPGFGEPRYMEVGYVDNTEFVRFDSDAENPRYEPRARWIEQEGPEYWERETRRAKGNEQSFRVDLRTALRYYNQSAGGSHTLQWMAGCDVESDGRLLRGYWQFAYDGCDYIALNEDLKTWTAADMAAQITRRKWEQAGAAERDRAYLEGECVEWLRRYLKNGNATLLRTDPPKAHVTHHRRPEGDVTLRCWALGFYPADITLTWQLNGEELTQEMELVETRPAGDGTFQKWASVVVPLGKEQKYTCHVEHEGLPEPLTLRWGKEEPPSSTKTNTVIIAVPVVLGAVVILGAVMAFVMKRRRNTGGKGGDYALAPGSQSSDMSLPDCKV

Row | Sequence | Normalized average relative binding affinity (ARB), HLA B*5101 (HLA B*5101) | Normalized average relative binding affinity (ARB), HLA B*0801 (HLA B*0801) | Normalized average relative binding affinity (ARB), HLA B*1501 (HLA B*1501) | Normalized average relative binding affinity (ARB), HLA B*5801 (HLA B*5801) | Normalized average relative binding affinity (ARB), HLA B*5301 (HLA B*5301) | Normalized average relative binding affinity (ARB), HLA B*1503 (HLA B*1503) | Normalized average relative binding affinity (ARB), HLA A*6802 (HLA A*6802) | Normalized average relative binding affinity (ARB), HLA B*0702 (HLA B*0702) | Normalized average relative binding affinity (ARB), HLA B*5401 (HLA B*5401) | Normalized average relative binding affinity (ARB), H-2 Kk (H-2 K^k) | Normalized average relative binding affinity (ARB), HLA B*3501 (HLA B*3501) | Normalized average relative binding affinity (ARB), H-2 Db (H-2 D^b) | Normalized average relative binding affinity (ARB), HLA A*0201 (HLA A*0201) | Normalized average relative binding affinity (ARB), HLA B*2705 (HLA B*2705) | Normalized average relative binding affinity (ARB), HLA B*5802 (HLA B*5802) | Normalized average relative binding affinity (ARB), H-2 Dd (H-2 D^d) | Normalized average relative binding affinity (ARB), HLA A*3001 (HLA A*3001) | Normalized average relative binding affinity (ARB), HLA A*3201 (HLA A*3201)
1 | VXXXXXXXX [3064.0018] | 0.17 | 0.047 | 0.14 | 0.74 | 0.018 | 0.22 | 0.038 | 0.14 | 0.032 | 0.13 | 0.11 | 0.094 | 0.062 | 0.16 | 0.21 | 0.80 | 0.074 | 0.28
2 | WXXXXXXXX [3064.0019] | 0.11 | 0.20 | 0.44 | 0.29 | 0.17 | 0.27 | 0.19 | 0.25 | 0.14 | 0.80 | 0.23 | 0.16 | 0.057 | 0.41 | 0.11 | 1.0 | 0.020 | 0.059
3 | XAXXXXXXX [3064.0021] | 0.54 | 0.41 | 0.57 | 0.48 | 0.44 | 0.13 | 0.12 | 0.086 | 1.0 | 0.047 | 0.88 | 0.64 | 0.0018 | 0.0054 | 0.035 | 0.025 | 0.89 | 0.11
4 | XCXXXXXXX [3064.0022] | 0.079 | 0.028 | 0.027 | 0.013 | 0.019 | 0.0028 | 0.0076 | 0.0028 | 0.0051 | 0.010 | 0.067 | 0.22 | 0.0016 | 0.0016 | 0.051 | 0.013 | 0.15 | 0.028
5 | XDXXXXXXX [3064.0023] | 0.022 | 0.014 | 0.0094 | 0.0033 | 0.0088 | 0.0054 | 0.0075 | 0.0029 | 0.0009 | 0.13 | 0.018 | 0.036 | 0.0016 | 0.0016 | 0.030 | 0.013 | 0.012 | 0.025
6 | XEXXXXXXX [3064.0024] | 0.041 | 0.038 | 0.20 | 0.0066 | 0.021 | 0.11 | 0.0068 | 0.0028 | 0.0026 | 1.0 | 0.021 | 0.036 | 0.030 | 0.0016 | 0.066 | 0.014 | 0.025 | 0.031
